# Results reported in patent publication US20210227843A1, “A TEMPERING COMPOSITION FOR TEMPERING GRAIN AND CONTROLLING PATHOGENS IN AND/OR ON SAID GRAIN, AN OXIDIZING COMPOSITION FOR PREPARING SAID TEMPERING COMPOSITION, A USE OF SAID TEMPERING COMPOSITION AND A METHOD OF USE OF SAID TEMPERING COMPOSITION” (AGRI-NEO INC., priority 2017, published 2021).
# Experiment: Flour functionality, sensory and physical characteristics after tempering wheat in an organic flour mill (Example 1)
# Conditions: 2 L per ton of wheat (citric acid 2 Kg); 16 h hold
row,Compound,MIXOLAB Stability
1,O=C(O)CC(O)(CC(=O)O)C(=O)O [Citric acid],13.5 min
2,CC(O)C(=O)O (centres unmarked) [Lactic acid],17.5 min
